In patent US20180338897A1, “ORAL COMPOSITIONS FOR REDUCING DENTAL STAINS” (New York University, priority 2017, published 2018):

Tests used:
yeast [1] = assay: Yeast growth curve in liquid YPD media, absorbance at 400 nm; format: cell-based, Saccharomyces cerevisiae; settings: for Final absorbance / Initial absorbance: 400 nm; for Final absorbance: after 24 hr; for Effect on yeast growth: growth curve over 24 hr, FIG. 8; for Initial absorbance: start of growth curve
Protocol: (§1) The following materials were used: peptone, dextrose/glucose, marmite/yeast extract, agar, 0.1 M EDTA in MOPS solution, 0.1 M C-2 in MOPS solution, 0.1 M C-6 in MOPS solution, and […] Deferiprone in MOPS solution, and water.
(§2) The yeast culture was prepared by adding dry baker's yeast to warm water and streaked on the media plates. Cultures were allowed to grow for 16-24 hours.
The growth curve experiment were carried out by measuring the inhibition of yeast culture in the presence of EDTA, C-2, C-6, and Deferiprone over time via absorbance at 400 nm (see FIG. 8).
The growth curve was used to measure the rate of growth of yeast over an 8 hour period with a final measurement after 24 hours. No growth is seen in the presence of EDTA. C-2, C-6, and Deferiprone show different levels of effectiveness (see FIG. 8).

[2] = Destaining of boiling beads stained with tannic acid and iron(III) chloride (Example 2); settings: for Removal of stains (conclusion): Experiments #1 and #2, comparison with EDTA; for Destaining: Experiment #1, 10 mL 0.1M solution on stained boiling beads
Protocol: To simulate the effects of staining caused by coffee and tea, tannic acid and iron(III) chloride solutions were prepared.
To prepare the tannic acid solution, solid tannic acid was used. 0.1M FeCl3.6H2O and added to 100 mL of distilled water. 0.1 M solutions of MOPS buffer was prepared. Then 0.1M solutions of EDTA in distilled water, C-2 in MOPS, C-6 in MOPS, and deferiprone in MOPS, were prepared. For a tooth like structure, boiling beads made from synthetic silicate were used.
Methods were as follows: Experiment #1: Comparison of EDTA, C-2, and deferiprone destaining: The procedure was broken down into 2 phases: staining and destaining. In the staining phase, 7 beads were added to each of the 12 vials. 3 vials were labeled control, 3 were labeled EDTA, 3 were labeled C-2, and 3 were labeled Deferiprone. 0.1 mL of the tannic acid and iron(III) chloride were pipetted onto the boiling beads in the vials. After mixing, 9.8 mL of 0.1 M, pH 7 MOPS was added. The vials were left to stand for a week at room temperature to complete the staining. For the destaining phase, the liquid in each vial was discarded and the beads were rinsed with distilled water 3 times. Then the solutions were added to the vials according to Table 1, swirled and left for the destaining phase.
Experiment #2: Comparison of deferiprone, C-2, and C-6 destaining: The same procedure was followed for Experiment 2 except EDTA was replaced with C-6 solution.

[3] = tested on: yeast (Saccharomyces cerevisiae); assay: Inhibition of yeast growth when prepared with dextrose-agar plates; format: cell-based
Text: The compounds of the present disclosure can reduce stains from the surfaces of teeth. The present compounds may also have anti-microbial activity. […] Thus, the compounds and compositions of the present disclosure may be used for reduction of teeth stains and/or as antimicrobials.

yeast [4] = assay: Disk diffusion on YPD agar plates with yeast cultures; format: cell-based, Saccharomyces cerevisiae; settings: plates incubated at 30° C.
Protocol: as §1
Plate media was prepared containing 2% dextrose, 2% peptone, 0.36 g of yeast extract, and 1.5% agar in 1 L of water. The mixture was heated to dissolve the ingredients, and then autoclaved. 10 mL of the media was added to petri dishes to prepare plates.
as §2
Disks to which C-2, C-6, EDTA, or Deferiprone were added were added to petri dishes containing yeast cultures. The plates were incubated at 30° C. The effect on yeast growth was visualized and measured over time. The zone sizes were measured to the nearest millimeter using a ruler or caliper, including the diameter of the disk in the measurement. The measurements were rounded up to the nearest millimeter.

[5] = Dissolution of deferiprone in distilled water; format: physicochemical; settings: 0.1 M in distilled water; room temperature; magnetic bar
Protocol: (§3) 0.1 M of Deferiprone solution was made by mixing 1.3957 g and 100 mL of distilled water into a volumetric flask. […] The tables below (Table 5 and Table 6) summarizes the contents of the vials used in this part of the experiment.

[6] = Destaining of stained beads and sand white quartz (Example 3); settings: for Relative destaining effectiveness: comparison of C11, EDTA and Deferiprone
Protocol: Tannic acid and iron chloride solutions were prepared as in Example 2. In order to simulate a tooth like structure, boiling beads made from a synthetic silicate (Techniservice) and white quartz sand were used. Four vials were prepared with the following solutions and solids (Table 3).
0.1 mL of the tannic acid and iron(III) chloride were pipetted into each vial. They were mixed on a vortex for 10 seconds. Then, 9.8 mL of 0.1 M, pH 7.4 MOPS was added to each vial to adjust the pH to a neutral level. MOPS was used to mimic the pH of saliva. The contents were mixed again. […] The vials were left to stand for a week at room temperature. The following table (Table 4) summarizes the components added to the tooth-like solids.
The solids in the vials were washed with approximately 10 mL of MOPS. This step was to simulate a wash of the “tooth” like structure with a “saliva” like buffer. The vials were left for a week to allow time for unstained areas of the beads to stain.
After the structures were stained, experiments were carried out to test if the stains could be removed. Approximately 5 mL of C11 (1-(11′-Carboxydecyl)-3-Hydroxy-2-Methyl-4-Pyridinone) solution was pipetted into Vials #1 and #3. Vials #2 and #4 served as controls. The contents of the vials were then mixed by vortexing. The vials were left to de-stain for a week. After a week, the liquid was drained from the vials and a fresh 5 mL of C11 was pipetted. Vials were left to de-stain for another week.
EDTA was prepared as follows. 100 mM of EDTA was made by adding 9.164 g to 250 mL of deionized water. The solution was stirred for 10 minutes, then placed on a heater.
Three new vials were filled with 2.2346 g, 2.0195 g, 2.2600 g of beads followed by the salt (0.1 mL), then the tannic acid (0.1 mL), and finally the MOPS. […] Three other vials were filled with 2.115 g, 2.009 g, 2.115 g of sand white quartz and the solutions were added in sequence. […] The solutions were left to continue to stain for a week. After a week, all the vials were rinsed with 10 mL of MOPS. Supernatant was removed by using filter paper. 10 mL of MOPS was then added and the contents were stirred then left to sit for a week.
1 mL of the EDTA was pipetted into each vial. The resulting concentration was 0.01 M of EDTA in each vial. Vials were then mixed to ensure proper contact with the MOPS and EDTA molecules. Vials were left to sit for a week.
Two more pairs of vials (4th and 5th pairs) were prepared—one with the beads and the other with the sand. MOPS solution was added, but not EDTA. […] Two more pairs of vials (6th and 7th pairs) were prepared, again, one with beads and the other with sand. The purpose of these controls was to test if the destaining process could be accelerated. The EDTA concentration was increased from 0.01 M to 0.1 M and 10 mL of it was subsequently added to the vials along with 10 mL of MOPS.
as §3
These vials were left to stand for a week. After the week the vials were rinsed with distilled water until the liquid that the beads/sand were suspended in were clear.
The next set of experiments was carried out to determine how quickly the compositions were able to remove the stains.
Beads and sand solutions were rinsed with 10 mL of distilled water. […] The solutions were prepared as follows: (Table 11).

| Compound | Final absorbance (yeast [1]) | Effect on yeast growth (yeast [1]) | Removal of stains (conclusion) [2] | Growth of yeast ([3]; 0.001 M) | Zone diameter (including the disk) (yeast [4]) [cm] | Initial absorbance (yeast [1]) | Destaining [2] | Relative destaining effectiveness [6] | also measured |
| --- | --- | --- | --- | --- | --- | --- | --- | --- | --- |
| Cc1c(O)c(=O)ccn1CCCCCC(=O)O [C-6, 1-(6′-Carboxypentyl)-3-Hydroxy-2-Methyl-4-Pyridinone] | 1.840 | effective, although the effect was less than EDTA and Deferiprone | effective in removal of stains and act to remove stains faster than EDTA | inhibited the growth of yeast | 1.45 |  |  |  |  |
| Cc1c(O)c(=O)ccn1C [Deferiprone, 3-hydroxy-1,2-dimethylpyridin-4(1H)-one] | 0.762 |  | effective in removal of stains and act to remove stains faster than EDTA |  |  | 0.389 | Destaining was immediately noted | most effective | Solubility [5]: slow solubility was observed; Growth of yeast ([3]; 0.003 M): inhibited the growth of yeast; Duration of effective destaining ([6]; speed experiment, all Deferiprone dilutions (10 mL, 1 mL, 0.1 mL, 0.01 mL of 0.1M)): For about an hour the destaining for all the vials except the controls continued to be effective; Stain removal immediately after addition ([6]; speed experiment, vials A3 and B3, 10 mL of 0.1M Deferiprone): the stains were removed; Stained removed? ([6]; vial A2: beads, 10 mL of 0.1M deferiprone, after a week): Yes; Stained removed? ([6]; vial A3: beads, 1 mL of 0.1M deferiprone & 9 mL of distilled water, after a week): Yes; Stained removed? ([6]; vial B2: sand white quartz, 10 mL of 0.1M deferiprone, after a week): Yes; Stained removed? ([6]; vial B3: sand white quartz, 1 mL of 0.1M deferiprone & 9 mL of distilled water, after a week): Yes; Discoloration of the solution after addition ([6]; vials A2 and B2 (beads, sand), 10 mL of 0.1M deferiprone): immediate discoloration; Discoloration of the solution after addition ([6]; vials A3 and B3 (beads, sand), 1 mL of 0.1M deferiprone & 9 mL of distilled water): relatively slower discoloration |
| O=C(O)CN(CCN(CC(=O)O)CC(=O)O)CC(=O)O [EDTA, ethylenediaminetetraacetic acid] | 0.481 | No growth |  |  |  | 0.375 | slight difference after 15 minutes | followed by EDTA | Destaining of beads ([6]; 0.01 M EDTA in MOPS, beads, after a week): partially destained; Destaining of sand (colour of solution) ([6]; 0.01 M EDTA in MOPS, white quartz sand, after a week): solutions were clear; Bleaching of beads and sand ([6]; EDTA 0.01 M to 0.1 M, beads and sand, after over a month): most of the beads and sand were bleached |
| Cc1c(O)c(=O)ccn1CC(=O)O [C-2, 1-Carboxymethyl-3-Hydroxy-2-Methyl-Pyrid-4-one] | 1.761 | effective, although the effect was less than EDTA and Deferiprone | effective in removal of stains and act to remove stains faster than EDTA | inhibited the growth of yeast | 1.55 |  | Destaining was immediately noted |  |  |
